We go through two compounds from PMC12137546, “Development of a microarray based telomerase binding assay reveals unusual binding of a cytochalasin derivative” (Scientific Reports, 2025).

Experiment [1] concerns the target T1, telomerase reverse transcriptase (TERT) (Homo sapiens, UniProt O14746). Briefly: microarray displacement of Cy5 primer cocktail from spotted TERT and lysates; TRAP inhibition in lysate at […]. The format is binding. Set-up: recombinant His-tagged full-length human TERT (pET28aTERT, E. coli) and cell lysates.
Experiment [2] addresses T1, telomerase reverse transcriptase (TERT). Briefly: microscale thermophoresis; also microarray displacement of Cy5 primer cocktail (EC50 […]) and TRAP inhibition in cell lysate. It is filed as binding. Set-up: recombinant His-tagged full-length human TERT (pET28aTERT, E. coli, urea/N-lauroylsarcosine solubilized, Ni-IMAC).

T1 sequence (O14746 whole entry): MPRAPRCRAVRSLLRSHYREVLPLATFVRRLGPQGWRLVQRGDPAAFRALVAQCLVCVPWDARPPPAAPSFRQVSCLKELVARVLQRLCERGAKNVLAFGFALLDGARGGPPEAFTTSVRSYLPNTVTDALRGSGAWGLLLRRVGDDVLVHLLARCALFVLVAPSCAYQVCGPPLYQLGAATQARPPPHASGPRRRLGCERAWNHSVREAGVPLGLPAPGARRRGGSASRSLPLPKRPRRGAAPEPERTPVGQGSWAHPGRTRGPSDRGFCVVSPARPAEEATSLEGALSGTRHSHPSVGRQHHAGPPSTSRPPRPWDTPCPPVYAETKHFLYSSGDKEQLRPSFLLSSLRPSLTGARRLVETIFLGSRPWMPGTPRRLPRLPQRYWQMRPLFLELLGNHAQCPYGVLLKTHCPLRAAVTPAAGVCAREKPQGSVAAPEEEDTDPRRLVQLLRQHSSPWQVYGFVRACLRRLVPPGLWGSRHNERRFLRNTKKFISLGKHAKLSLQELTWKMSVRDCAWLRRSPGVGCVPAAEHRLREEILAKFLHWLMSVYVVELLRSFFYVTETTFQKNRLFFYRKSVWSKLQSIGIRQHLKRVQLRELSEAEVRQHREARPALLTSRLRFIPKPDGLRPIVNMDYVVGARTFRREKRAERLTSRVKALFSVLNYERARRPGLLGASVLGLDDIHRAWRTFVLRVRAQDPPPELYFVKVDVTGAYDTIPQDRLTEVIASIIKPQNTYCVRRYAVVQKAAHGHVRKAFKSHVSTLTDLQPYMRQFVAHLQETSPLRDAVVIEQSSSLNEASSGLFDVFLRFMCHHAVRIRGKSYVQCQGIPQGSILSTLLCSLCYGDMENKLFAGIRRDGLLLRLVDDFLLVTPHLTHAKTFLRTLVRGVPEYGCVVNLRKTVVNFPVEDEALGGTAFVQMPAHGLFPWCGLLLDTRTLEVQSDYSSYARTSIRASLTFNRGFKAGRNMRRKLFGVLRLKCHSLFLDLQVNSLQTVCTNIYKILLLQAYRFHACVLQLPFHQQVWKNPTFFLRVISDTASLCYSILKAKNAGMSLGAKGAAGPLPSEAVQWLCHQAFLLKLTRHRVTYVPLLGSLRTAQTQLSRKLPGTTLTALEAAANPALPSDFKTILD

On to `C=C1[C@@H](C)C2[C@H](Cc3ccc(I)cc3)NC(=O)[C@@]23C(/C=C/C[C@H](C)C[C@@](C)(O)/C=C/[C@H]3OC(C)=O)[C@@H]1O` (some centres unmarked) [compound 7, 4’-iodo cytochalasin H], for which the EC50 in experiment [1] was 2.76 to 4.41 µM.

Regarding `O=C(O[C@@H]1Cc2c(O)cc(O)cc2O[C@@H]1c1cc(O)c(O)c(O)c1)c1cc(O)c(O)c(O)c1` [EGCG, epigallocatechin-3-gallate], the Kd in experiment [2] was approximately 26 µM.
